Literature values, collected in patent US20200315965A1, “NANOEMULSION CONCENTRATE FORMULATIONS AND METHODS” (priority 2019, published 2020).

Settings: water

In the case of `CCCCCc1cc(O)c2c(c1)OC(C)(C)[C@@H]1CCC(C)=C[C@@H]21` [THC, tetrahydrocannabinol], the aqueous solubility is listed as roughly 0.003 milligrams per milliliter.
